This note sets out measurements from ChEMBL document CHEMBL1157539, “Thousands of chemical starting points for antimalarial lead identification” (Nature, 2010).

For this experiment, the system named is Plasmodium falciparum. The experiment is described as follows: GSK_TCMDC: Inhibition of Plasmodium falciparum 3D7 in whole erythrocytes, using parasite LDH activity as an index of growth. The experiment is classed as functional, organism-based. The conditions noted are these: Plasmodium falciparum, 3D7.
Consider `O=C(Cn1c(CCc2cccc(F)c2F)nc(=O)c2ccccc21)N(CCCN1CCCC1)Cc1ccc(-c2ccc(C(F)(F)F)cc2)cc1`, for which the XC50 came out at 941 nM.
`N#Cc1ccc(N(CCOc2ccc(Cl)c(F)c2)Cc2ccccc2C(F)(F)F)cc1C(F)(F)F` returned an XC50 of 685 nM.
With `CC1=C(C(=O)Nc2cc3cn[nH]c3cc2F)C(c2cccc(O)c2F)CC(=O)N1` (stereo not given) the figure was 629 nM.
For `C#CCOc1ccc(N2C(N)=NC(N)=NC2(C)C)cc1` the value was 65.8 nM; for `C=CCN1C(=O)C(=Cc2cc(Br)ccc2O)SC1=Nc1ccccc1`, 900 nM.
Take `N#Cc1ccc2c(c1)CCN(CCC1CCC(NC(=O)/C=C/c3nc4ccccc4s3)CC1)CC2` (stereo not given): the XC50 turned out to be 829 nM.
`O=C(NCC(CCN1CCC(c2c[nH]c3ccccc23)CC1)c1ccccc1)Nc1ccc(Cl)c(Cl)c1` (stereo not given) gave an XC50 of 833 nM.
`COc1cc(NC(=O)N2CCOC(CCN3CCC4(CCc5ccccc54)CC3)(c3ccc(Cl)c(Cl)c3)C2)cc(OC)c1` (stereo not given) showed an XC50 of 819 nM.
`COc1ccc(NC(=O)c2cn(-c3ccc(C(C)(C)C)cc3)nc2C)cc1N1CCN(C)CC1` had an XC50 of 949 nM.
In turn, `CCOc1cc(C)c(C2CCN(CCCCNC(=O)c3ccc(NC(=O)c4ccc(Cl)cc4)cc3)CC2)cc1C` came in with an XC50 of 739 nM.
For `CCCNC(=O)c1cncc(-c2ccc(CNC3Cc4ccccc4C3)cc2)c1` the value was 848 nM; for `O=C(NC1CCCCC1)C1CCCN(C(=O)c2ccc(O)c(-c3ccc(Cl)c(Cl)c3)c2)C1` (stereo not given), 903 nM.
For `Clc1ccc2c(NCCc3ccccn3)ccnc2c1` the value was 832 nM; for `C#C[C@H]1O[C@@H](n2cnc3c(Nc4cc(Br)cc(C(F)(F)F)c4)ncnc32)[C@H](O)[C@@H]1O`, 1030 nM.
With `C#CC[C@@H](NC(N)=O)C(=O)O` the figure was 189 nM; with `CC(C)c1cn2c3c(cc(C(=O)N[C@@H](Cc4ccccc4)[C@H](O)CNC4CCCCC4)cc13)N(C)S(=O)(=O)CC2`, 30 nM; with `CC(C)COc1ccc(Cl)cc1Cc1nc(-c2nc3ccc(N4CCN(C)CC4)nc3[nH]2)cs1`, 751 nM.
`Cc1cc(Nc2ccc(O)cc2)nc2cc(O)ccc12` yielded an XC50 of 756 nM.
With `Cc1ccc(C)c(Sc2ccc(NC(=O)CN3CCN(C(=O)c4ccco4)CC3)cc2)c1` the figure was 716 nM; with `CCOc1cc(C)ccc1C1CCN(CCCCNC(=O)c2cccc(-c3ccc(C(F)(F)F)cc3)c2)CC1`, 937 nM.
In turn, `Cc1cc2ccccc2n1CC(=O)N1CC(C(=O)N2CCCCC2)Oc2ccccc21` (stereo not given) showed an XC50 of 899 nM.
Regarding `CC(=O)Nc1cc(C(=O)Nc2ccc(C3=NCCN3)cc2)ccc1C(=O)Nc1ccc(C2=NCCN2)cc1`, the XC50 came out at 133 nM.
For `COc1ccc(C(=O)CCC(=O)N(CCSC(C)(C)C)Cc2ccc(-c3ccc(CNCCc4ccc(S(C)(=O)=O)cc4)cn3)cc2)cc1F`, the XC50 came out at 627 nM.
With `Cc1nc2ccc3nc(NC(=O)c4ccno4)sc3c2s1` the figure was 656 nM; with `O=C(/C=C/c1ccc(Cl)c(Cl)c1)N1CCC(CN2CCC(c3cn(CC(=O)N4CCCCC4)c4ccccc34)CC2)CC1`, 750 nM.
As to `Cc1cc2c(cc1C(F)(F)F)N(C(=O)Nc1cnc(OCCN(C)C)c(C(F)(F)F)c1)CC2`, the XC50 stood at 966 nM.
With `COc1cc(Br)c(NC(=O)Nc2ccc(C(F)(F)F)c(O[C@@H]3CCN(C)C3)c2)cc1OC` the figure was 626 nM; with `NC(=O)c1cccc(Nc2nccc(Nc3ccc(Oc4c(Cl)cccc4Cl)c(Cl)c3)n2)c1`, 871 nM.
`CC(C)NCc1ccc(-c2ccc(-c3nc4cc(F)ccc4[nH]3)cc2)cc1`: the XC50 turned out to be 213 nM.
The compound `CCc1cccc(-n2c(=O)c3cccnc3n2CC(=O)NC2CCCC2)c1` came in with an XC50 of 932 nM.
Compound `COc1ccc(NC(=O)[C@H](Cc2ccccc2)Nc2cc(C)nc(NCCc3cccnc3)n2)cc1` displayed an XC50 of 760 nM.
In the case of `O=c1cc(NCCCNCc2ccc(Cl)c(Cl)c2)[nH]c2cc(F)cc(F)c12`, the XC50 came out at 675 nM.
Compound `Cn1cnc(CCNC(=O)c2ccc(-c3cccc(-c4nc5ccccc5[nH]4)c3)cc2)c1` showed an XC50 of 1100 nM.
Regarding `O=C(Cc1cccc2ccccc12)NC1CCN(c2ccnc3cc(Cl)ccc23)C1` (stereo not given), the XC50 was 248 nM.
Consider `CCOC(=O)c1ccc(N2CCN(CCCNC(=O)/C(=C/C=C/c3cc4cc(Cl)c(Cl)cc4[nH]3)OC)CC2)cc1`, for which the XC50 amounted to 845 nM.
With `COc1ccccc1-c1nc2c(ccc3nc(N)nc(N)c32)[nH]1` the figure was 176 nM.
`CC(C)COc1ccc(Cl)cc1Cc1nc(-c2nc3ccc(CN4CCCC4)cc3[nH]2)co1` showed an XC50 of 727 nM.
With `CC(CN1CCN(C)CC1)C(=O)Nc1cccc(-c2cccc(-c3nc4ccccc4[nH]3)c2)c1` (stereo not given) the figure was 1010 nM; with `O=C(Nc1cccc(F)c1)N[C@H]1CCN(CCCCCNC(=O)C2CC2c2ccc(Cl)c(Cl)c2)C1` (stereo not given in full), 991 nM; with `CCC(CC)n1cc2c(ccc3nc(N)nc(N)c32)n1`, 81.4 nM.
For the compound `CCCCNC(=O)[C@H](CC1CCCCC1)NC(=O)c1ccc(O)c(-c2ccc(Cl)c(Cl)c2)c1`, the XC50 is 164 nM.
Turning to `CC[C@H]1CN2CC[C@H]1C[C@@H]2[C@@H](O)c1ccnc2ccccc12`, the XC50 worked out at 279 nM.
For `CC1CCCN(c2ccc(NC(=O)c3cccs3)cc2[N+](=O)[O-])C1` (stereo not given) the value was 669 nM.
As to `COCCN(C(=O)Cc1cccs1)C(C(=O)NCc1ccc(OC)cc1)c1ccc(C(C)C)cc1` (stereo not given), the XC50 was 845 nM.
For `CC(CCCCCC(=O)Nc1ccc(CC(C)NCCc2cccc(Cl)c2)cc1)NCCc1cccc(Cl)c1` (stereo not given) the value was 948 nM; for `CCCCCCCCCn1c(NCc2cc(Cl)ccc2O)nc2ccccc21`, 825 nM; for `CCCN1CCN(CCCNC(=O)c2cc3c(Cl)nc4ccc(C)cc4c3s2)CC1`, 802 nM.
`CCc1c(C(=O)NC2CCC(N3CCC(c4ccccc4C)CC3)CC2)[nH]c2ccc(Br)cc12` (stereo not given): the XC50 was determined as 928 nM.
For `COc1ccccc1-c1csc(C(=O)NC2CCCCN(Cc3ccc(C(C)(C)C)cc3)C2)c1` (stereo not given) the value was 1530 nM; for `CC(C)CCNC(=O)[C@@H]1[C@H]2C(=O)N(C3CCCCC3)C(=O)[C@H]2[C@H]2C=C[C@@H]3C(c4ccc(C(C)(C)C)cc4)=NO[C@@H]3N21`, 788 nM.
For `O=C(/C=C/c1ccc(Cl)cc1)NCCCCCN1CCCN(C(=O)Nc2ccc(F)c(Cl)c2)CC1` the value was 781 nM; for `O=C(Nc1ccc(S(=O)(=O)N2CCCCC2)cc1)c1cc(-c2cc(Cl)ccc2O)n[nH]1`, 811 nM.
Compound `COc1cc(NC(=O)c2c(-c3c(Cl)cccc3Cl)noc2C)c(OC)cc1Cl` registered an XC50 of 916 nM.
For `CC(=O)N1N=C(c2ccc(Cl)cc2)Sc2c1nc(-c1ccccc1)n2C(C)=O` the value was 493 nM; for `Cc1cccc2nc(-c3cccc(-c4cccc(NC(=O)c5cn(C)c(=O)n5C)c4)c3)[nH]c12`, 505 nM; for `COc1cc(Cc2cnc(N)nc2N)cc(OCCCCCC(=O)O)c1OC`, 231 nM.
For `COc1cccc(C(=O)C2CC2CN2CC=C(c3c[nH]c4cccc(Br)c34)CC2)c1` (stereo not given) the value was 752 nM; for `CC(=O)c1cccc2cc(C(=O)NC3CCC(CCN4CCc5ccc(C#N)cc5C4)CC3)[nH]c12` (stereo not given), 787 nM; for `Cc1ccc(C2CCN(CCCCNC(=O)c3ccc(NC(=O)c4ccc(Cl)cc4)cc3)CC2)c(OCC2CC2)c1`, 887 nM.
With `Cc1ccc(/C=C2/SC(=Nc3ccccc3)NC2=O)c(C)c1` the figure was 557 nM.
